Paper PMC12624794, “Mechanism of inhibition of acid-mediated transthyretin aggregation by designed peptides” (The Journal of Biological Chemistry, 2025)

How the values were obtained:
seeded TTR aggregation = settings: extracted amyloidogenic fibrils from patients as seeds, in vitro; cited from earlier work
TTR tetramer = settings: cited from earlier work
From the text: (§1) However, the efficacy of tafamidis is reduced for patients with TTR amyloidosis diagnosed at a later stage, when severe organ damage caused by TTR aggregates cannot be reversed ([12]).

[1] = system: patients with TTR amyloidosis; settings: TTR amyloidosis diagnosed at a later stage; cited from earlier work
From the text: as §1

[2] = biological target: T1, TTR^F (C10S-trifluoroacetyl-S85C TTR) (Homo sapiens, UniProt P02766, C30S/S105C); test: Real-time 19F-NMR aggregation kinetics at 310 K, pH 4.4 (three-state model); assay type: biochemical; settings: 1 μM peptide; pH 4.4, 310 K
T1 construct: made in house
Experimental: At acidic pH, tetramer dissociation is favored, the misfolding of the monomeric intermediate is facilitated, and the downhill aggregation is accelerated ([1]). We used a previously reported ^19F-labeled TTR construct, C10S-trifluoroacetyl-S85C (denoted as TTR^F), to quantify TTR aggregation kinetics using real-time ^19F-NMR. […] To quantify how the presence of peptides alters TTR aggregation kinetics, we added 1 μM of each TabH2 and TabF2 as well as 1 μM ffTAD1 to 2.5 μM TTR^F (tetramer concentration) at pH 4.4 and 310 K and monitored time-dependent population kinetics for tetramer, monomer, and NMR-invisible aggregates (Fig. 3, A and B). […]
To gain kinetic insights into the aggregation pathway, we fit the time-dependent aggregation data of TTR^F using a previously reported three-state kinetic model, tetramer ↔ monomer ↔ aggregate ([18]), where tetramer and monomer are NMR-visible, and aggregates are NMR-invisible. […] Using this model, fits of the time-dependent population changes determined from peak areas yield four first-order apparent rates. […]
^19F-NMR spectra were acquired using Bruker Avance 600 or Avance 700 MHz spectrometers as previously described ([18]). […] Weighted average chemical shift perturbations (CSPs) for backbone amides were calculated using (Δδ^1H)^2+(Δδ^15N/5)^2 , where Δ δ means chemical shift differences for either ^1H or ^15N with and without peptides.

O=C(O)c1ccc2nc(-c3cc(Cl)cc(Cl)c3)oc2c1 [Tafamidis]
inhibition of seeded TTR aggregation (seeded TTR aggregation): does not effectively inhibit seeded TTR aggregation
binding to TTR tetramer (TTR tetramer): binds to the central cavity of the TTR tetramer
effect on tetramer dissociation (TTR tetramer; stabilization of the tetramer): suppresses dissociation to monomers
efficacy in late-diagnosed patients [1]: reduced

CC(C)[C@H](NC(=O)[C@H](C)NC(=O)[C@H](Cc1ccc(O)cc1)NC(=O)[C@H](CO)NC(=O)[C@@H](NC(=O)[C@@H]1CCCN1C(=O)[C@H](CC(N)=O)NC(=O)[C@@H](NC(=O)[C@@H](NC(=O)[C@H](Cc1ccc(O)cc1)NC(=O)[C@H](CO)NC(=O)[C@H](CCCNC(=N)N)NC(=O)[C@H](CCCNC(=N)N)NC(=O)[C@H](CCCNC(=N)N)NC(=O)[C@H](CCCNC(=N)N)NC(=O)[C@H](CCC(=O)O)NC(=O)[C@@H](NC(=O)[C@H](CO)NC(=O)CNC(=O)CNC(=O)CNC(=O)[C@H](CCC(=O)O)NC(=O)[C@@H](NC(=O)[C@H](Cc1ccccc1)NC(=O)[C@H](CCC(=O)O)NC(=O)[C@@H](NC(=O)[C@H](Cc1ccccc1)NC(=O)[C@@H]1CCCN1C(=O)[C@H](Cc1c[nH]cn1)NC(=O)[C@H](C)NC(=O)[C@@H](NC(=O)[C@H](Cc1c[nH]cn1)NC(=O)[C@H](CCCNC(=N)N)NC(=O)[C@H](CCCNC(=N)N)NC(=O)[C@H](CCCNC(=N)N)NC(=O)[C@H](CCCNC(=N)N)NC(=O)[C@H](Cc1c[nH]cn1)NC(=O)[C@H](Cc1c[nH]cn1)NC(=O)[C@H](Cc1c[nH]cn1)NC(=O)[C@H](Cc1c[nH]cn1)NC(=O)[C@H](Cc1c[nH]cn1)NC(=O)[C@@H](N)Cc1c[nH]cn1)C(C)C)C(C)C)[C@@H](C)O)[C@@H](C)O)C(C)C)[C@@H](C)O)[C@@H](C)O)C(=O)N[C@H](C(=O)O)[C@@H](C)O [ffTAD1]
reduction of steady-state population of NMR-invisible aggregates vs TTR^F-only control [2]: ~8%
